Assay results reported in US6083987A, “Phenylenediamine derivative, radical scavenger, brain-infarction depressant, and brain-edema depressant” (Shiseido Co., Ltd., priority 1998, dated 2000).

What was measured:
[1] = Radical Eliminating Effect Test (DPPH); type: biochemical; details: 10 μM sample compound, 0.1 mM DPPH, pH 5.5, 30 minutes, room temperature
Experimental: Radical Eliminating Effect Test (DPPH)
Radical-eliminating ability of a sample drug is studied in terms of its reaction amount and reactivity with respect to α, α-diphenyl-β-picrylhydrazyl (DPPH) which is a stable radical.
Method of Uchiyama et al. (Japanese Journal of Pharmacology, vol. 88, pp. 678-683, 1968) was used. Namely, to a solution containing 20 mM acetic acid buffer (pH 5.5), 60% ethanol, and 10 μM of a sample compound, DPPH was added so as to yield a concentration of 0.1 mM. The resulting mixture was stirred and then its change in absorbance (ABS) at 517 nm was measured for 30 minutes at room temperature. Here, the sample compound was used as being dissolved in dimethylsulfoxide (DMSO). While the final concentration of DMSO was 10%, no influence upon the present system was observed.
The DPPH reducing ratio of the sample compound at the concentration of 10 μM was calculated by the following equation:
reducing ratio (%)={1-(ABS after 30 minutes/initial ABS)}×100

[2] = test system: MCA infarction reperfusion model; experiment: Brain Edema Inhibition Test (MCA infarction reperfusion model); type: in vivo, rat (Fischer); details: dose was 100 mg/kg; i.p. 20 minutes before reperfusion; two-hour ischemia and two-hour reperfusion; brain moisture content
Text: Brain Edema Inhibition Test
The brain edema inhibitory activity in vivo is confirmed. According to this test, it can be judged whether the peripherally administered sample compound can pass through the blood-brain barrier or not.
By using a 7 to 9-week-old Fischer rat (Charles River Japan Inc.), an MCA infarction reperfusion model was formed according to method of Koizumi et al. (Japanese Journal of Stroke, vol. 8, pp. 1-8, 1986). Namely, the rat was fixed face-up position under anesthesia with 2% halothane and then its neck portion was subjected to median incision so as to separate the right common carotid artery therefrom to the carotid artery branching portion while carefully keeping the vagus nerve. The outer carotid artery and inner carotid artery around the carotid artery branching portion were separated from their surrounding connecting tissues. Then, the common carotid artery and outer carotid artery were ligated with a silk string. Further, the inner carotid artery starting portion was surrounded by a silk string so as to be ready for ligation and fixation which would be effected after insertion of an embolus string. Then, the common carotid artery was incised and, from there, an embolus string was inserted toward the inner carotid artery by about 15 to 16 mm and then ligated and fixed to the inner carotid artery with the above mentioned silk string. As a result of the foregoing operation, the tip of the embolus string proceeded beyond the MCA branching portion so as to enter the anterior cerebral artery by about 1 to 2 mm and formed infarction at the MCA inlet by the body portion of the embolus string. After the embolus string blocking the MCA starting portion was left for a predetermined time, it was pulled out under halothane anesthesia to effect reperfusion. Here, in this model, since the right common carotid artery has been ligated, the blood flow is supposed to be restarted from the left inner carotid artery and vertebral-basilar by way of the anterior and posterior communicating arteries. This experiment effected two-hour ischemia and two-hour reperfusion.
Here, the embolus string was prepared in the following manner. Namely, a tip of a 4-0 surgical nylon string having a total length of 16 mm was held over an alcohol lamp so as to form a ball with a diameter of 0.2 to 0.3 mm and then a length of about 5 mm on the nearer side therefrom was coated with a dental impression material with reference to the size of the ball, thereby forming the embolus string.
The brain moisture content was measured by wet and dry weight method. […] Further, after being dried at 110° C. for 24 hours, their weight was measured again to yield dry weight. From thus obtained wet weight and dry weight, the brain moisture content was determined by the following equation: […]

[3] = test system: rat brain homogenate; experiment: Lipid Peroxidation Inhibition Test; type: biochemical, rat (SD-line male); details: 1 μM sample compound, pH 7.4, 1 hour at 37° C., TBA method
Text: Lipid Peroxidation Inhibition Test
In an automatic oxidation system using a rat brain homogenate, whether a sample compound having a radical-eliminating effect can actually have a lipid peroxidation inhibitory activity or not is investigated and its effectiveness is comparatively studied.
With reference to method of Shimamoto et. al. (Clinical Study of Free Radical, vol. 1, pp. 91-95, 1987), the following method was used. An SD-line male rat (7-week-old) was bled to death with a physiological saline perfusion under pentobarbital anesthesia. Then, its hemisphaerium cerebri was taken out and, while being cooled with ice, a 19-fold amount of 20 mM phosphoric acid buffer (pH 7.4) was added thereto. The resulting mixture was homogenized. To this mixture, 1 μM of the sample compound was added. After the resulting mixture was incubated for 1 hour at 37° C., the amount of generated lipid peroxide was determined by TBA method. Namely, to 0.2 ml of the homogenate, 0.2 ml of 8.1% SDS, 1.5 ml of 20% acetic acid buffer (pH 3.5), and 1.5 ml of 0.8% TBA reagent were added. The resulting mixture was incubated for 1 hour at 95° C. and then rapidly cooled with ice. Subsequently, 1 ml of distilled water and 5 ml of n-butanol/pyridine mixed solution (15:1, v/v) were added thereto and the mixture was stirred. After the mixture was centrifuged, the butanol layer was collected therefrom and its absorbance (a) at 535 nm was measured as compared with a blank. Also, as a reference liquid, a 10 μM solution of 1,1,3,3-tetraethoxypropane (TEP) was added in place of the brain homogenate and its absorbance (A) was measured in a similar manner. In the blank, a phosphoric acid buffer was used in place of the brain homogenate. The peroxide concentration was calculated by the following equation and defined as the brain lipid peroxide amount: […]
peroxide concentration (nmol/g wet weight)=a/A×100
The sample compound was used as being dissolved in dimethylsulfoxide (DMSO). While the final concentration of DMSO was 2%, no influence upon the present system was observed.
The lipid peroxidation inhibitory rate of the sample compound at the concentration of 1 μM was calculated from the amount of increase in lipid peroxide in solvent-added group (M) and that in sample compound added group (m): […]
lipid peroxidation inhibitory rate (%)={1-(m/M)}×100

[4] = test system: middle cerebral artery (MCA) infarction model; experiment: Brain Infarction Inhibition Test (MCA infarction model); type: in vivo, rat (Crj:Fischer-344 line male); details: for Brain infarction inhibitory ratio: dose was 100 mg/kg, 2 hours ischemia, 2 hours reperfusion, i.p. 20 minutes before or i.v. simultaneously with reperfusion, * p < 0.05
Experimental: Brain Infarction Inhibition Test i) Meaning The brain infarction inhibitory activity in vivo is studied. According to this test, it can be judged whether the peripherally administered sample compound can pass through the blood-brain barrier or not. ii) Method For the experiment, 9 to 10-week-old Crj:Fischer-344 line male rats were used. Each of all the soluble sample compounds was dissolved in a physiological saline and then administered intravenously or intraperitoneally. Each of insoluble ones was suspended in a physiological saline containing 0.1% Tween 80 and administered intraperitoneally. Also, those dissolved in a physiological saline containing 0.5% Tween 80 were used for intravenous administration. The intraperitoneal administration was effected 20 minutes before reperfusion, whereas the intravenous administration was effected simultaneously with reperfusion. As a control, only the base was administered. The surgical operation was effected in a manner similar to method of Koizumi et al. (Japanese Journal of Stroke, vol. 8, pp. 1-8, 1986) so as to form a middle cerebral artery (MCA) infarction model. Namely, the rat was subjected to inhalation anesthesia with 4% halothane and then, while the anesthesia was maintained with 1% halothane, fixed on face-up position. The neck portion was subjected to median incision such that the common carotid artery and outer carotid artery around the right carotid artery branching portion were separated from their surrounding connecting tissues and then ligated with a silk string. Further, the inner carotid artery starting portion was surrounded by a silk string so as to be ready for ligation and fixation which would be effected after insertion of an embolus. Then, the common carotid artery was incised and, from there, an embolus having a length of about 16 mm, in which a 4-0 surgical nylon string had been coated with a dental impression material, was inserted toward the inner carotid artery and its end near the nylon string was ligated and fixed to the inner carotid artery with the above mentioned silk string. Also, during the surgical operation, the body temperature was maintained by a small animal body temperature control apparatus in order to prevent it from lowering upon the whole anesthesia processes. According to the foregoing operation, brain ischemia was effected for 2 hours and then the embolus was pulled out so as to effect reperfusion. The brain was taken out two hours after the reperfusion and then 4 pieces of crown-like separated strips were prepared by 2-mm intervals from the lambda level toward the downstream. These strips were immersed in 2% triphenyltetrazorium chloride (TTC) solution and incubated at 37° C., for 10 minutes. Thus dyed brain strips were immersed in a phosphate-buffered 8% formalin solution for 1 to 2 days and then photographed under a stereo-microscope ([…]). Thereafter, for each crown-like strip, the area of infarction region was measured by Planimeter ([…]) Judgment Standard The effects of the sample compound were represented by its individual inhibitory rate (%) which used the total area of the infarction regions, which had not been dyed with TTC in the 4 strips. The significance test was effected by student t-test. individual inhibitory rate(%)={1-(value in sample group/value in control group)}×100

Row | SMILES | DPPH reducing ratio [1] [%] | Brain edema inhibitory ratio [2] [%] | Lipid peroxidation inhibitory ratio [3] [%] | Brain infarction inhibitory ratio [4] [%] | brain infarction inhibition activity, in words ([4]; rat, in vivo)
1 | CC(C)Cc1cc(C(=O)Nc2ccc(N(C)C)cc2)ccc1O [Example 1] | 22.9 | 2.0 | 40.1 | 53.0 | 
2 | CC(C)Cc1ccc(O)c(C(=O)Nc2ccc(N(C)C)cc2)c1 [Example 2] | 17.7 |  | 26.8 | 41.2 | 
3 | CC(C)Cc1cccc(C(=O)Nc2ccc(N(C)C)cc2)c1O [Example 3] | 22.5 |  | 22.7 |  | 
4 | CC(C)Cc1ccc(C(=O)Nc2ccc(N(C)C)cc2)cc1O [Example 4] | 16.4 |  | 13.5 |  | 
5 | CC(C)Cc1nccc(C(=O)Nc2ccc(N(C)C)cc2)c1O [Example 5] | 16.1 | 38.1 | 29.5 | 19.0 | 
6 | COc1ccc(COc2ccc(C(=O)Nc3ccc(N(C)C)cc3)cc2CC(C)C)cc1 [Example 6] | 25.1 | 1.5 | 41.7 |  | 
7 | COc1ccc(C(=O)Nc2ccc(N(C)C)cc2)cc1CC(C)C [Example 7] | 20.7 |  | 48.9 |  | 
8 | CC(C)=CCC/C(C)=C/COc1ccc(C(=O)Nc2ccc(N(C)C)cc2)cc1CC(C)C [Example 8] | 21.2 |  | 41.7 |  | 
9 | CC(C)Cc1cc(C(=O)Nc2ccc(N(C)C)cc2)ccc1OCc1ccccc1 [Example 9] | 25.5 | 19.2 | 28.1 | 39.9 | 
10 | CC(C)Cc1cccc(C(=O)Nc2ccc(N(C)C)cc2)c1OCc1ccccc1 [Example 10] | 11.5 |  | 28.2 | 18.7 | showed brain infarction inhibition tendency
11 | CC(C)Cc1cc(S(=O)(=O)Nc2ccc(N(C)C)cc2)ccc1O [Example 12] | 61.8 |  | 24.2 | 0.7 | 
12 | CC(C)Cc1cc(S(=O)(=O)Nc2ccc(N(C)C)cc2)ccc1OC(=O)c1ccccc1 [Example 13] | 58.9 |  | 13.4 |  | 
13 | CC(C)Cc1cc(C(=S)Nc2ccc(N(C)C)cc2)ccc1O [Example 14] | 18.3 |  | 33.9 |  | 
14 | CC(C)Cc1cc(CC(=O)Nc2ccc(N(C)C)cc2)ccc1OCc1ccccc1 [Example 15] | 12.8 |  | 24.8 | 2.8 | 
15 | CC(C)Cc1cc(CC(=O)Nc2ccc(N(C)C)cc2)ccc1O [Example 16] | 21.0 |  | 14.4 |  | 
16 | CC(C)Cc1cccc(CC(=O)Nc2ccc(N(C)C)cc2)c1O [Example 17] | 18.7 |  | 10.4 |  | 
